Results from patent US20250176550A1, “HERBICIDE COMPOSITION OF URACIL COMPOUND CONTAINING CARBOXYLATE FRAGMENT AND THE USE THEREOF” (Jiangsu Flag Chemical Industry Co., Ltd., priority 2022, published 2025).

Columns and labels:
Type in all cases: in vivo
veronica persica = assay: Indoor virulence and combined effect, greenhouse pot test, post-emergence stem and leaf spray, fresh weight inhibition
Summary of the method: (§1)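 Weeds in greenhouse pots received a spray-tower treatment, either post-emergence at the 3–4 leaf (grasses) or 4–6 leaf (broadleaf) stage, or pre-emergence as a soil spray 24 h after sowing. Compounds were applied in acetone diluted with 0.1 wt% Tween-80 water, alone or mixed, in g/ha. Fresh weight inhibition was measured at 21 days, with synergy judged by Gowing expected efficacy (E−E0 >10%).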

setaria viridis = assay: as above
Summary of the method: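 Greenhouse potted weeds sprayed post-emergence on stem and leaf at 3–4 leaf stage, with A and B alone or mixed; acetone solutions diluted in 0.1 wt% Tween-80, solvent-emulsifier water as blank.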

digitaria sanguinalis = assay: Indoor virulence and combined effect, greenhouse pot test, pre-emergence soil spray treatment, fresh weight inhibition
Method: (§2) The active ingredients A and B are respectively screened and an indoor combined effect of the composition on weeds was evaluated by an indoor test and a field test, to determine a combined effect of the composition on weeds.
(§3) Quantitative seeds of Poaceae weeds (echinochloa crusgalli, Digitaria sanguinalis, setaria viridis, Eleusine indica, avena fatua, alopecurus japonicus, alopecurus aequalis, Lolium multiflorum) and broadleaf weeds (eclipta prostrata, rorippa dubia, Abutilon theophrasti, conyza canadensis, veronica persica, myosoton aquaticum, polygonum lapathifolium, galium aparine var. tenerum, alisma plantago-aquatica, geranium carolinianum) were sown in paper cup containing nutrient soil with a diameter of 7 cm, covered with soil for 1 cm after sowing. After pressing and watering, they were cultured in a greenhouse according to a conventional method. Poaceae weeds grew to 3˜4 leaf stage, broad-leaved weeds grew to 4˜6 leaf stage, spraying treatment to both stem and leaf was performed; and pre-seedling soil spray treatment was performed 24 hours after sowing. Following an experimental design dosage, a WP-2000 walking spray tower (spindle speed 96 mm/r, spray height 200 mm, effective spray amplitude of nozzle 350 mm, nozzle flow rate 390 mL/min, nozzle walking speed 210 mm/s) was used for the spray treatment. The experiment was repeated three times. After being treated, a sample material is placed in an operation hall, and after the drug solution is naturally dried out, the sample material is placed in a greenhouse and managed according to the conventional method. A reaction of weeds to the drug agent is observed and recorded, and a regularly visual check of a control effect of the drug agent on weeds was performed after the treatment.
(§4) All of original drugs were using acetone as a solvent, being diluted with 0.1 wt % emulsifier of Tween-80 aqueous solution, and being diluted right before using.
(§5) When determining a ratio or content of the active ingredient A and the active ingredient B, it should be measured from characteristics of action of both agents and virulence thereof, as well as the main purpose of use of a formula shall also be considered in. In the present study, on a basis of previous pre-test, the dosages of the active ingredient A and the active ingredient B were set, when being used alone and mixed, as shown in the following table. Water containing no agent, but containing the same solvent and emulsifier was used as a blank control.
(§6) Repeat 4 times for each treatment, 3 pots per treatment each time and 30 weed seeds were sown for each pot.
(§7) Adopting an absolute number survey method, using a blade to cut the whole seedling of surviving weed along soil surface, and weighting the fresh weight of the weed with an analytical balance. For weeds that had died, counting the fresh weight as zero.
(§8) Survey period and frequency: 21 days after the treatment, total 1 investigation.
(§9) The theoretical fresh weight inhibition rate (E0-Expected Efficacy=[…]) of each treatment combination was calculated by Gowing method, and then compared with the measured inhibition rate (E-Observed Efficacy) to evaluate the combined effect type of both on weeds. When E-E0 value was greater than 10%, it was counted as a synergistic effect, less than −10%, it was counted as an antagonistic effect, and between −10%˜10%, it was counted as an additive effect. According to a plurality of factors including an actual control efficacy, a herbicide characteristic, a formula balance and other factors to determine the best ratio. In the formula, X is the fresh weight inhibition rate of the ingredient A at a dosage of P; Y is the fresh weight inhibition rate of the active ingredient B at a dosage of Q.
(§10) The statistical results are shown in Table 1 to Table 44 below, except for those marked clearly as “pre-emergence treatment”, all others are “post-emergence treatment”. […]

eclipta prostrata [1] = assay: as above
Method: as §2, §3, §4, §5, §6, §7, §8, §9, §10

eleusine indica = assay: as above
Method: as §2, §3, §4, §5, §6, §7, §8, §9, §10

eclipta prostrata [2] = assay: Indoor virulence and combined effect, greenhouse pot test, post-emergence stem and leaf spray, fresh weight inhibition
Summary of the method: as §1

## CCOC(=O)C(C)(C)OC(=O)c1cc(-n2c(=O)cc(C(F)(F)F)n(C)c2=O)c(F)cc1Cl [Compound A-250]
Veronica persica; Table 9, 10 g a.i./ha, post-emergence, 21 days after treatment
  Fresh weight inhibition rate %, A single agent: 68.79%
Veronica persica; Table 9, 15 g a.i./ha, post-emergence, 21 days after treatment
  Fresh weight inhibition rate %, A single agent: 70.47%
Veronica persica; Table 9, 20 g a.i./ha, post-emergence, 21 days after treatment
  Fresh weight inhibition rate %, A single agent: 82.86%
Veronica persica; Table 23, A 5 g a.i./ha
  Fresh weight inhibition rate %, A single agent: 62.6%
Veronica persica; Table 23, A 10 g a.i./ha
  Fresh weight inhibition rate %, A single agent: 68.79%
Veronica persica; Table 23, A 15 g a.i./ha
  Fresh weight inhibition rate %, A single agent: 70.47%
Veronica persica; Table 24, A 5 g a.i./ha
  Fresh weight inhibition rate %, A single agent: 62.6%
Veronica persica; Table 24, A 10 g a.i./ha
  Fresh weight inhibition rate %, A single agent: 68.79%
Veronica persica; Table 24, A 15 g a.i./ha
  Fresh weight inhibition rate %, A single agent: 70.47%
Veronica persica; Table 24, A 20 g a.i./ha
  Fresh weight inhibition rate %, A single agent: 82.86%
Veronica persica; Table 26, A 2 g a.i./ha
  Fresh weight inhibition rate %, A single agent: 24.6%
Veronica persica; Table 26, A 5 g a.i./ha
  Fresh weight inhibition rate %, A single agent: 62.6%
Veronica persica; Table 26, A 10 g a.i./ha
  Fresh weight inhibition rate %, A single agent: 68.79%
Veronica persica; Table 26, A 15 g a.i./ha
  Fresh weight inhibition rate %, A single agent: 70.47%
Setaria viridis; Table 6, 10 g a.i./ha, post-emergence, 21 days after treatment
  Fresh weight inhibition rate %, A single agent: 52.54%
Setaria viridis; Table 6, 15 g a.i./ha, post-emergence, 21 days after treatment
  Fresh weight inhibition rate %, A single agent: 65.7%
Setaria viridis; Table 6, 20 g a.i./ha, post-emergence, 21 days after treatment
  Fresh weight inhibition rate %, A single agent: 78.77%
Setaria viridis; Table 8, 10 g a.i./ha, post-emergence, 21 days after treatment
  Fresh weight inhibition rate %, A single agent: 52.54%
Setaria viridis; Table 8, 15 g a.i./ha, post-emergence, 21 days after treatment
  Fresh weight inhibition rate %, A single agent: 65.7%
Setaria viridis; Table 8, 20 g a.i./ha, post-emergence, 21 days after treatment
  Fresh weight inhibition rate %, A single agent: 78.77%
Setaria viridis; Table 10, A 10 g a.i./ha
  Fresh weight inhibition rate %, A single agent: 52.54%
Setaria viridis; Table 10, A 15 g a.i./ha
  Fresh weight inhibition rate %, A single agent: 65.7%
Setaria viridis; Table 10, A 20 g a.i./ha
  Fresh weight inhibition rate %, A single agent: 78.77%
Digitaria sanguinalis; Table 39, A 15 g a.i./ha
  Fresh weight inhibition rate %, A single agent: 68.96%
Digitaria sanguinalis; Table 39, A 20 g a.i./ha
  Fresh weight inhibition rate %, A single agent: 75.50%
Digitaria sanguinalis; Table 39, A 25 g a.i./ha
  Fresh weight inhibition rate %, A single agent: 85.50%
Digitaria sanguinalis; Table 40, A 15 g a.i./ha
  Fresh weight inhibition rate %, A single agent: 68.96%
Digitaria sanguinalis; Table 40, A 20 g a.i./ha
  Fresh weight inhibition rate %, A single agent: 75.50%
Eclipta prostrata [1]; Table 28, A 5 g a.i./ha
  Fresh weight inhibition rate %, A single agent: 52.89%
Eclipta prostrata [1]; Table 28, A 10 g a.i./ha
  Fresh weight inhibition rate %, A single agent: 66.05%
Eclipta prostrata [1]; Table 28, A 15 g a.i./ha
  Fresh weight inhibition rate %, A single agent: 68.5%
Eclipta prostrata [1]; Table 28, A 20 g a.i./ha
  Fresh weight inhibition rate %, A single agent: 78.12%
Eleusine indica; Table 21, A 25 g a.i./ha
  Fresh weight inhibition rate %, A single agent: 69.44%
Eleusine indica; Table 21, A 30 g a.i./ha
  Fresh weight inhibition rate %, A single agent: 90.86%

## COCCOC(=O)C(C)(C)OC(=O)c1cc(-n2c(=O)cc(C(F)(F)F)n(C)c2=O)c(F)cc1Cl [Compound A-273]
Eclipta prostrata [2]; Table 11, A 2 g a.i./ha
  Fresh weight inhibition rate %, A single agent: 28.12%
Eclipta prostrata [2]; Table 11, A 4 g a.i./ha
  Fresh weight inhibition rate %, A single agent: 38.50%
Eclipta prostrata [2]; Table 11, A 8 g a.i./ha
  Fresh weight inhibition rate %, A single agent: 46.05%
Eclipta prostrata [2]; Table 11, A 16 g a.i./ha
  Fresh weight inhibition rate %, A single agent: 52.89%
Eclipta prostrata [2]; Table 12, A 4 g a.i./ha
  Fresh weight inhibition rate %, A single agent: 38.50%
Eclipta prostrata [2]; Table 12, A 8 g a.i./ha
  Fresh weight inhibition rate %, A single agent: 46.05%
Eclipta prostrata [2]; Table 12, A 16 g a.i./ha
  Fresh weight inhibition rate %, A single agent: 52.89%
Eclipta prostrata [2]; Table 42, A 2 g a.i./ha
  Fresh weight inhibition rate %, A single agent: 28.12%
Eclipta prostrata [2]; Table 42, A 4 g a.i./ha
  Fresh weight inhibition rate %, A single agent: 38.50%
Eclipta prostrata [2]; Table 42, A 8 g a.i./ha
  Fresh weight inhibition rate %, A single agent: 46.05%
Eclipta prostrata [2]; Table 42, A 16 g a.i./ha
  Fresh weight inhibition rate %, A single agent: 52.89%
Eclipta prostrata [2]; Table 43, A 4 g a.i./ha
  Fresh weight inhibition rate %, A single agent: 38.50%
Eclipta prostrata [2]; Table 43, A 8 g a.i./ha
  Fresh weight inhibition rate %, A single agent: 46.05%
